Like-named read-outs stand apart in the source and are kept apart here.

Experiment [1] has as its system HSV-1 F. In words: anti-HSV screening test (cytopathogenic effect, fluorescein diacetate readout) in Vero cells, HSV-1 F. Conditions: read-out: IC50 [μM] HSV-1 F/Vero. The class given is cell-based. On the procedure: (§1) HSV (HSV-1 Walki, HSV-1F or HSV-2G) was cultivated on Vero cells (ATCC CCL-81) under the following conditions. The cells were grown in M199 medium (5% foetal calf serum, 2 mM glutamine, 100 IU/ml penicillin, 100 μg/ml streptomycin) in cell culture bottles at 37° C. and 5% CO2. The cells were split twice per week, in each case 1:4. For the infection, the medium was removed, the cells were washed with Hank's solution, detached using 0.05% trypsin, 0.02% EDTA (Seromed L2143) and incubated at a density of 4×10^5 cells per ml under the abovementioned conditions for 24 hours. The medium was then removed and the virus solution was added at an m.o.i. of <0.05 in a volume of 2 ml per 175 cm^2 of surface. The medium was incubated under the conditions mentioned for one hour and then made up to a volume of 50 ml per 175 cm^2 bottle. […] The virus was released by freezing (−80° C.) and thawing (37° C.) the cultures twice. Cell debris was removed by centrifugation (300 g, 10 min, 4° C.) and the supernatant was frozen down in aliquots at −80° C.
(§2) The anti-HSV action was determined in a screening test system in 96-well microtitre plates using various cell lines of neuronal, lymphoid and epithelial origin, such as, for example, Vero (kidney cell line of the green monkey), MEF (murine embryonal fibroblasts), HELF (human embryonal fibroblasts), NT2 (human neuronal cell line) or Jurkat (human lymphoid T-cell line).
(§3) The substances (50 mM), dissolved in DMSO (dimethyl sulphoxide), are examined on microtitre plates (for example 96-well MTP) in final concentrations of 250-0.5 μM (micromolar) in two replications (4 substances/plate). In the case of potent substances, the dilutions are continued for several plates up to 0.5 pM (picomolar). Also examined are toxic and cytostatic effects of the substances. After an appropriate dilution of the substances (1:2) on the microtitre plate in medium, a suspension of cells ([…] cells per well) such as, for example, of Vero cells in M199 (medium 199) with 5% foetal calf serum, 2 mM glutamine and optionally 100 IU/ml penicillin and 100 μg/ml streptomycin or of MEF cells in EMEM (Eagle's Minimum Essential Medium) with 10% foetal calf serum, 2 mM glutamine and optionally 100 IU/ml penicillin and 100 μg/ml streptomycin, or of HELF cells in EMEM with 10% foetal calf serum, 2 mM glutamine and optionally 100 IU/ml penicillin and 100 μg/ml streptomycin, or of NT2 and Jurkat cells in DMEM ([…] glucose plus pyridoxin) with 10% foetal calf serum, 2 mM glutamine, 1 mM sodium pyruvate, non-essential amino acids and optionally 100 IU/ml penicillin and 100 μg/ml streptomycin, is added to each well and the cells in the relevant wells are infected with an appropriate amount of virus (HSV-1 F or HSV-2 G having an m.o.i. (multiplicity of infection) of 0.0025 for HELF, Vero and MEF cells and an m.o.i. of 0.1 for NT2 and Jurkat cells). The plates are then incubated at 37° C. in a CO2 incubator (5% CO2) for several days. […] The plates are initially evaluated visually using a microscope and then analysed using a fluorescent dye. To this end, the cell supernatant of all wells of the MTP is aspirated and the wells are filled with 200 μl of PBS wash solution. The PBS is then aspirated and all the wells are filled with 200 μl of fluorescent dye solution (fluorescein diacetate, 10 μg/ml in PBS). After an incubation time of 30-90 min, the test plates are read in a fluorescence detector at an excitation wavelength of 485 nm and an emission wavelength of 538 nm.

In experiment [2] the test system is HSV-2 G. Kind of experiment: anti-HSV screening test (cytopathogenic effect, fluorescein diacetate readout) in Vero cells, HSV-2 G. The class given is cell-based. The conditions noted are these: read-out: IC50 [μM] HSV-2 G/Vero. How it is done:
as §1, §2, §3
(In general: Protection from cytopathic effect is a common read-out in antiviral testing.)

Experiment [3] concerns HSV-1. In words: in-vivo action: survival of intranasally HSV-infected mice. Conditions: HSV-1, intranasal infection 5×10^4 Pfu, female BALB/cABom mice; treated 3 times per day for 5 days from 6 hours after infection; from survival curves. On the set-up: species or system BALB/cABom strain. How it is done:
6-week-old female mice, BALB/cABom strain were obtained from a commercial breeder (Bomholtgard Breeding and Research Centre Ltd.).
The animals were anaesthetized with diethyl ether (Merck) in a sealed glass vessel. 50 μl of a dilution of the virus stock (infection dose 5×10^4 Pfu) were introduced into the nose of the anaesthetized animals using an Eppendorf pipette. In 90-100% of the animals, this infection dose causes death by a generalized infection with prominent respiratory and central-nervous symptoms on average after 5 to 8 days.
6 hours after the infection, the animals were treated with doses of 0.1-100 mg/kg of body mass, 3 times per day, at 7 a.m., 2 p.m. and 7 p.m., for a period of 5 days. The substances were pre-dissolved in DMSO and resuspended in tylose/PBS (Hoechst) (final concentration 1.5% DMSO, 0.5% tylose in PBS).
After the last administration, the animals were monitored further and the time of death was determined.

[4] abbreviates: Human alphaherpesvirus 1, HSV-1 F, Vero cells, half-maximal fluorescence intensity with respect to the non-infected cell control.
The mark [5] stands for this setting: Human alphaherpesvirus 2, HSV-2 G, Vero cells, half-maximal fluorescence intensity with respect to the non-infected cell control.

Consider `Cc1nc(C(C)C(=O)Nc2ccc(-c3ccccc3)cc2)sc1S(N)(=O)=O` (centres unmarked) [Example 1, 2-[5-(Aminosulphonyl)-4-methyl-1,3-thiazol-2-yl]-N-(1,1′-biphenyl-4-yl)-propanamide], for which the IC50 in experiment [1] (setting [4]) is 0.05 µM; in experiment [2] (setting [5]) it was 0.03 µM.

Turning to `Cc1nc(C(C)C(=O)Nc2ccc(-c3cc(F)ccc3F)cc2)sc1S(N)(=O)=O` (centres unmarked) [Example 3, 2-[5-(Aminosulphonyl)-4-methyl-1,3-thiazol-2-yl]-N-(2′,5′-difluoro-1,1′-biphenyl-4-yl)propanamide], the IC50 in experiment [1] (Human alphaherpesvirus 1, Vero) was 0.05 µM; in experiment [2] (Human alphaherpesvirus 2, Vero), 0.01 µM. For the same molecule, in experiment [3], the “ED90 (90% of the animals survive at this dose)” value is recorded as “about 3 mg/kg”.

As to `CCOc1ccc(NC(=O)C(C)c2nc(C)c(S(N)(=O)=O)s2)cc1` (centres unmarked) [Example 4, 2-[5-(Aminosulphonyl)-4-methyl-1,3-thiazol-2-yl]-N-(4-ethoxyphenyl)-propanamide], the IC50 in experiment [1] (setting [4]) and in experiment [2] (setting [5]) was 0.75 µM each time.

On to `Cc1nc(C(C)C(=O)Nc2ccc(-c3ccccn3)cc2)sc1S(N)(=O)=O` (centres unmarked) [Example 2, 2-[5-(Aminosulphonyl)-4-methyl-1,3-thiazol-2-yl]-N-[4-(2-pyridinyl)-phenyl]propanamide], for which the IC50 was 0.2 µM in experiment [1] (setting [4]) and 0.4 µM in experiment [2] (setting [5]).

With `CNS(=O)(=O)c1sc(C(C)C(=O)Nc2ccc(-c3ccccc3)cc2)nc1C` (centres unmarked) [Example 5, N-(1,1′-Biphenyl-4-yl)-2-{4-methyl-5-[(methylamino)sulphonyl]-1,3-thiazol-2-yl}propanamide], the values for the IC50 in experiment [1] (setting [4]) and in experiment [2] (setting [5]) were 0.1 µM and 0.06 µM, respectively.
